# Assay results from patent US20230277534A1 (Plexxikon Inc., priority 2011, published 2023).
# Molecular target: B-Raf V600E (Homo sapiens (Human), UniProt P15056, V600E)
# Experiment: B-Raf V600E kinase biochemical activity assay (AlphaScreen, biotin-MEK1 substrate)
# Conditions: 100 μM ATP
# Description: Assays for biochemical and cell based activity are known in the art, for example, as described in PCT publication WO 2007/002433, the disclosure of which is hereby incorporated by reference as it relates to such assays. For example, the biochemical activity IC50 values are determined with respect to inhibition of B-Raf V600E kinase activity or p-Erk kinase activity, where inhibition of phosphorylation of a peptide substrate is measured as a function of compound concentration. Compounds to be tested are diluted in dimethyl sulfoxide to a concentration of 0.1 mM. These are serially diluted 15 μL into 30 μL of dimethyl sulfoxide seven times in 96 well plates for a total of 8 dilution points, and for each dilution point 1 μL is added to a well of an assay plate. Plates are prepared such that each well in a 384 well plate contains 1 μL of compound in 10 μL volume with 0.1 ng Raf enzyme (i.e. any of B-Raf, c-Raf-1 or B-Raf V600E, Upstate Biotechnology or prepared by methods known to one of skill in the art), 50 mM HEPES, pH 7.0, 50 mM NaCl, 2 mM MgCl2, 1 mM MnCl2, 0.01% Tween-20, 1 mM DTT, and 100 nM biotin-MEK1 as substrate. The reaction is started with addition of 10 μL of 200 μM ATP (i.e. final 100 μM ATP). After incubation of the kinase reaction for 45 minutes at room temperature, 5 μL/well of Stop Solution is added (25 mM Hepes pH 7.5, 100 mM EDTA, 0.01% BSA with donor beads (Streptavidin coated beads, Perkin Elmer), acceptor beads (Protein A coated, Perkin Elmer), and anti phosphor MEK1/2 antibody (CellSignal), each at final concentration 10 μg/mL). The plates are incubated for 3 hours at room temperature and read on Envision reader (Perkin Elmer). Phosphorylation of Mek1 results in binding of the anti-phosphor-MEK1/2antibody and association of the donor and acceptor beads such that signal correlates with kinase activity. The signal vs. compound concentration is used to determine the IC50.
# Sequence of B-Raf V600E (P15056 whole entry V600E): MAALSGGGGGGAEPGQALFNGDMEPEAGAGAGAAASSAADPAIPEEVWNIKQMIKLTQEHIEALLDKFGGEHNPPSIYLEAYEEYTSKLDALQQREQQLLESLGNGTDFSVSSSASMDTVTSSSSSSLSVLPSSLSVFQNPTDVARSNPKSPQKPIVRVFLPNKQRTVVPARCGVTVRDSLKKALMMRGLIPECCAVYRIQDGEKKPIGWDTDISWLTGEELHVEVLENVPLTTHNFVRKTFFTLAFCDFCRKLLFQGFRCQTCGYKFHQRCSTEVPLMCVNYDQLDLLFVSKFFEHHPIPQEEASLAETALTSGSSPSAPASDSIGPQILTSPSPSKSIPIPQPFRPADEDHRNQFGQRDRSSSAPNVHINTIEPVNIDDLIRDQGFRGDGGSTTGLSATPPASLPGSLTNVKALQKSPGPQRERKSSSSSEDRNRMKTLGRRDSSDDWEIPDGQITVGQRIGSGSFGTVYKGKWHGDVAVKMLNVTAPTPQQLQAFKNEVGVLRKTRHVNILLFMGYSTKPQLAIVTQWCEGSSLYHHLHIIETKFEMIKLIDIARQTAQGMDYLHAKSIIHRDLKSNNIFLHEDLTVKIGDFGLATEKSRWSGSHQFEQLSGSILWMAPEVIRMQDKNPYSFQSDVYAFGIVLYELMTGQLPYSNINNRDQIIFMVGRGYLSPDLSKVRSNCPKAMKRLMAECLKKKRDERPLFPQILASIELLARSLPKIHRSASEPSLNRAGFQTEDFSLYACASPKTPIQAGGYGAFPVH
row,SMILES,IC50 [µM]
1,"CC(C)(O)c1ccc(-c2cnc3[nH]cc(C(=O)c4cccc(NS(=O)(=O)N5CCCC5)c4F)c3c2)cc1 [Compound P-0105, N-[2-fluoro-3-[5-[4-(1-hydroxy-1-methyl-ethyl)phenyl]-1H-pyrrolo[2,3-b]pyridine-3-carbonyl]phenyl]pyrrolidine-1-sulfonamide]",< 0.1
2,"CCCN(C)S(=O)(=O)Nc1ccc(F)c(C(=O)c2c[nH]c3ncc(-c4ccc(C5(C#N)CC5)cc4)cc23)c1F [Compound P-0079, 5-[4-(1-cyanocyclopropyl)phenyl]-3-[2,6-difluoro-3-[[methyl(propyl)sulfamoyl]amino]benzoyl]-1H-pyrrolo[2,3-b]pyridine]",< 0.1
3,"CN1CCN(c2cc(-c3cnc4[nH]cc(C(=O)c5c(F)ccc(NS(=O)(=O)N6CCCC6)c5F)c4c3)ncn2)CC1 [Compound P-0319, N-[2,4-difluoro-3-[5-[6-(4-methylpiperazin-1-yl)pyrimidin-4-yl]-1H-pyrrolo[2,3-b]pyridine-3-carbonyl]phenyl]pyrrolidine-1-sulfonamide]",< 0.1
4,"C[C@H]1CCN(S(=O)(=O)Nc2ccc(F)c(C(=O)c3c[nH]c4ncc(-c5cnc(C6CC6)nc5)cc34)c2F)C1 [Compound P-0320, (3S)—N-[3-[5-(2-cyclopropylpyrimidin-5-yl)-1H-pyrrolo[2,3-b]pyridine-3-carbonyl]-2,4-difluoro-phenyl]-3-methyl-pyrrolidine-1-sulfonamide]",> 0.1
5,"O=C(c1c(F)ccc(NS(=O)(=O)N2CCCC2)c1F)c1c[nH]c2ncc(-c3cc(C(F)(F)F)ncn3)cc12 [Compound P-0294, N-[2,4-difluoro-3-[5-[6-(trifluoromethyl)pyrimidin-4-yl]-1H-pyrrolo[2,3-b]pyridine-3-carbonyl]phenyl]pyrrolidine-1-sulfonamide]",< 0.1
6,"COC(=O)C1(c2ccc(-c3cnc4[nH]cc(C(=O)c5cccc(NS(=O)(=O)N6CCCC6)c5F)c4c3)cc2)CC1 [Compound P-0254, methyl 1-[4-[3-[2-fluoro-3-(pyrrolidin-1-ylsulfonylamino)benzoyl]-1H-pyrrolo[2,3-b]pyridin-5-yl]phenyl]cyclopropanecarboxylate]",< 0.1
7,"O=C(c1c(F)ccc(NS(=O)(=O)N2CCCC2)c1F)c1c[nH]c2ncc(-c3ccnc(OC4CCC4)c3)cc12 [Compound P-0286, N-[3-[5-[2-(cyclobutoxy)-4-pyridyl]-1H-pyrrolo[2,3-b]pyridine-3-carbonyl]-2,4-difluoro-phenyl]pyrrolidine-1-sulfonamide]",< 0.1
8,"CCN(C)S(=O)(=O)Nc1ccc(F)c(C(=O)c2c[nH]c3ncc(-c4cnc(N5CCN(C(=O)OC(C)(C)C)CC5)nc4)cc23)c1F [Compound P-0264, tert-butyl 4-[5-[3-[3-[[ethyl(methyl)sulfamoyl]amino]-2,6-difluoro-benzoyl]-1H-pyrrolo[2,3-b]pyridin-5-yl]pyrimidin-2-yl]piperazine-1-carboxylate]",< 0.1
9,"CN(C)S(=O)(=O)Nc1cccc(C(=O)c2c[nH]c3ncc(-c4ccc(C(C)(C)O)cc4)cc23)c1F [Compound P-0103, 3-[3-(dimethylsulfamoylamino)-2-fluoro-benzoyl]-5-[4-(1-hydroxy-1-methyl-ethyl)phenyl]-1H-pyrrolo[2,3-b]pyridine]",< 0.1
10,"O=C(c1c(F)ccc(NS(=O)(=O)N2CCCC2)c1F)c1c[nH]c2ncc(-c3cnc(N4CCOCC4)nc3)cc12 [Compound P-0266, N-[2,4-difluoro-3-[5-(2-morpholinopyrimidin-5-yl)-1H-pyrrolo[2,3-b]pyridine-3-carbonyl]phenyl]pyrrolidine-1-sulfonamide]",< 0.1
11,"CCN(C)S(=O)(=O)Nc1ccc(F)c(C(=O)c2c[nH]c3ncc(-c4ccc(C(=O)NC5CC5)nc4)cc23)c1F [Compound P-0312, N-cyclopropyl-5-[3-[3-[[ethyl(methyl)sulfamoyl]amino]-2,6-difluoro-benzoyl]-1H-pyrrolo[2,3-b]pyridin-5-yl]pyridine-2-carboxamide]",< 0.1
12,"N#Cc1ncc(-c2cnc3[nH]cc(C(=O)c4cccc(NS(=O)(=O)N5CCCC5)c4F)c3c2)cn1 [Compound P-0091, N-[3-[5-(2-cyanopyrimidin-5-yl)-1H-pyrrolo[2,3-b]pyridine-3-carbonyl]-2-fluoro-phenyl]pyrrolidine-1-sulfonamide]",< 0.1
13,"CCOc1cnc(-c2cnc3[nH]cc(C(=O)c4c(F)ccc(NS(=O)(=O)N(C)C)c4F)c3c2)cn1 [Compound P-0244, 3-[3-(dimethylsulfamoylamino)-2,6-difluoro-benzoyl]-5-(5-ethoxypyrazin-2-yl)-1H-pyrrolo[2,3-b]pyridine]",< 0.1

# Other lines, results leading:
row,IC50 [µM],SMILES
1,< 0.1,"CCN(C)S(=O)(=O)Nc1cccc(C(=O)c2c[nH]c3ncc(-c4ccc(C5CC5)nc4)cc23)c1F [Compound P-0087, 5-(6-cyclopropyl-3-pyridyl)-3-[3-[[ethyl(methyl)sulfamoyl]amino]-2-fluoro-benzoyl]-1H-pyrrolo[2,3-b]pyridine]"
2,> 0.1,"COC(=O)C(C)S(=O)(=O)Nc1cccc(C(=O)c2c[nH]c3ncc(-c4cnc(C5CC5)nc4)cc23)c1F (centres unmarked) [Compound P-0291, methyl 2-[[3-[5-(2-cyclopropylpyrimidin-5-yl)-1H-pyrrolo[2,3-b]pyridine-3-carbonyl]-2-fluoro-phenyl]sulfamoyl]propanoate]"
3,< 0.1,"COc1ncc(-c2cnc3[nH]cc(C(=O)c4cccc(NS(=O)(=O)N(C)CC5CC5)c4F)c3c2)cn1 [Compound P-0083, 3-[3-[[cyclopropylmethyl(methyl)sulfamoyl]amino]-2-fluoro-benzoyl]-5-(2-methoxypyrimidin-5-yl)-1H-pyrrolo[2,3-b]pyridine]"
4,< 0.1,"CCCN(C)S(=O)(=O)Nc1cccc(C(=O)c2c[nH]c3ncc(-c4cnc(C5CC5)nc4)cc23)c1F [Compound P-0086, 5-(2-cyclopropylpyrimidin-5-yl)-3-[2-fluoro-3-[[methyl(propyl)sulfamoyl]amino]benzoyl]-1H-pyrrolo[2,3-b]pyridine]"
5,< 0.1,"O=C(c1cccc(NS(=O)(=O)N2CCCC2)c1F)c1c[nH]c2ncc(-c3cnc(NC4CC4)nc3)cc12 [Compound P-0232, N-[3-[5-[2-(cyclopropylamino)pyrimidin-5-yl]-1H-pyrrolo[2,3-b]pyridine-3-carbonyl]-2-fluoro-phenyl]pyrrolidine-1-sulfonamide]"
6,< 0.1,"CCN(C)S(=O)(=O)Nc1cccc(C(=O)c2c[nH]c3ncc(-c4cnc(N5CCCC5)nc4)cc23)c1F [Compound P-0108, 3-[3-1[[ethyl(methyl)sulfamoyl]amino]-2-fluoro-benzoyl]-5-(2-pyrrolidin-1-ylpyrimidin-5-yl)-1H-pyrrolo[2,3-b]pyridine]"
7,< 0.1,"COc1ncc(-c2cnc3[nH]cc(C(=O)c4cccc(NS(=O)(=O)C5CC5)c4F)c3c2)cn1 [Compound P-0067, N-[2-fluoro-3-[5-(2-methoxypyrimidin-5-yl)-1H-pyrrolo[2,3-b]pyridine-3-carbonyl]phenyl]cyclopropanesulfonamide]"
8,> 0.1,"CC(=O)N(C)C1CCN(S(=O)(=O)Nc2cccc(C(=O)c3c[nH]c4ncc(-c5cnc(C6CC6)nc5)cc34)c2F)C1 (centres unmarked) [Compound P-0267, N-[1-[[3-[5-(2-cyclopropylpyrimidin-5-yl)-1H-pyrrolo[2,3-b]pyridine-3-carbonyl]-2-fluoro-phenyl]sulfamoyl]pyrrolidin-3-yl]-N-methyl-acetamide]"
9,< 0.1,"CN(C)S(=O)(=O)Nc1cccc(C(=O)c2c[nH]c3ncc(-c4cnc(C#N)nc4)cc23)c1F [Compound P-0096, 5-(2-cyanopyrimidin-5-yl)-3-[3-(dimethylsulfamoylamino)-2-fluoro-benzoyl]-1H-pyrrolo[2,3-b]pyridine]"
10,> 0.1,"CCOC(=O)C1CCCN1S(=O)(=O)Nc1cccc(C(=O)c2c[nH]c3ncc(-c4cnc(OC)nc4)cc23)c1F (centres unmarked) [Compound P-0257, ethyl 1-[[2-fluoro-3-[5-(2-methoxypyrimidin-5-yl)-1H-pyrrolo[2,3-b]pyridine-3-carbonyl]phenyl]sulfamoyl]pyrrolidine-2-carboxylate]"
11,< 0.1,"CCCN(C)S(=O)(=O)Nc1cccc(C(=O)c2c[nH]c3ncc(-c4cnc(NC5CC5)nc4)cc23)c1F [Compound P-0082, 5-[2-(cyclopropylamino)pyrimidin-5-yl]-3-[2-fluoro-3-[[methyl(propyl)sulfamoyl]amino]benzoyl]-1H-pyrrolo[2,3-b]pyridine]"
12,> 0.1,"COc1ncc(-c2cnc3[nH]cc(C(=O)c4cccc(NS(=O)(=O)N(C)C(C)C)c4F)c3c2)cn1 [Compound P-0075, 3-[2-fluoro-3-[[isopropyl(methyl)sulfamoyl]amino]benzoyl]-5-(2-methoxypyrimidin-5-yl)-1H-pyrrolo[2,3-b]pyridine]"
13,< 0.1,"CCNS(=O)(=O)Nc1cccc(C(=O)c2c[nH]c3ncc(-c4cnc(OC)nc4)cc23)c1F [Compound P-0068, [3-(ethylsulfamoylamino)-2-fluoro-phenyl]-[5-(2-methoxypyrimidin-5-yl)-1H-pyrrolo[2,3-b]pyridin-3-yl]methanone]"
